The source of these data is US7655799B2, “2{[2-(substituted amino)ethyl]sulfonyl}ethyl N,N,N',N'-tetrakis(2-chloroethyl)phosphorodiamidates” (Telik, Inc., priority 2006, dated 2010).

Data set [1] in a line: Solubility in water of salts. Particulars: for solubility: water, solubility in water.
For data set [2], the system named is DLD-1 (colorectal adenocarcinoma). The data set can be described thus: Cytotoxicity/Growth Inhibition Assay (CellTiter-Glo), DLD-1. Type of data set: cell-based. Particulars: Homo sapiens, DLD-1, 96 h; hydrochloride salts; 4 days culture. The protocol:
(§1) The human cancer cell lines DLD-1 (colorectal adenocarcinoma), LNCaP (prostate carcinoma), and MIA PaCa-2 (pancreatic carcinoma) were obtained from the American Type Culture Collection, Manassas, Va., U.S.A., and MX-1 (breast carcinoma) from the National Cancer Institute, Bethesda, Md., U.S.A. The CellTiter-Glo assay kit was obtained from Promega Corporation, Madison, Wis., U.S.A. All products were used in accordance with manufacturer's directions. All assays were conducted in triplicate wells, with dimethyl sulfoxide (DMSO) solvent control. The extent of cell growth was expressed as a percentage of the signal from the solvent control wells.
(§2) Log-phase cells were trypsinized, collected by centrifugation, and resuspended in a small volume of fresh medium, and the density of viable cells was determined following Trypan Blue staining. Cells were diluted in fresh media (3×10^3 cells/mL for DLD-1, MIA PaCa-2, and MX-1, and 6×10^3 cells/mL for LNCaP), and added at 150 μL/well to 96-well plates, and incubated for several hours to allow attachment in the case of adherent cells. Compounds 1A to 5A, as their hydrochloride salts, dissolved in DMSO, was diluted 50-fold with fresh medium and the diluted solutions immediately added at 50 μL/well to the cell suspensions, giving final compound concentrations between 0.1 μM and 200 μM and a final DMSO concentration of 0.5%. The cells were cultured for approximately three doubling times (3 days for MIA PaCa-2 and MX-1, and 4 days for DLD-1 and LNCaP). The cells were then collected by centrifugation, and 100 μL of the culture supernatant was replaced by the CellTiter-Glo reagent. After incubation for 10 minutes at room temperature, and the plate was read with a luminometer. A number of compounds of formula A were tested in this assay and found to be active.
In general terms: ATP-based viability assays read luminescence as a measure of living cells.

Data set [3] concerns MX-1 tumor. The data set can be described thus: MX-1 Xenograft Assay, Intraperitoneal Administration. The data set is classed as in vivo, athymic nu/nu mice. Conditions: hydrochloride salts in aqueous 5% dextrose. As for the experimental part: (§3) Female athymic nu/nu mice (Harlan, Indianapolis, Ind., U.S.A. or similar vendor), 6-8 weeks old (approximately 20 g), were implanted in the mammary fat pad of the right fore flank with 20-30 mg pieces of MX-1 tumor harvested from similar nu/nu mice that had previously been implanted with the MX-1 tumor. […] Groups of mice were treated with compounds 2A and 3A at 50 mg/Kg and compounds 1A, 2A, 3A, and 5A at 100 mg/Kg, in all cases as the hydrochloride salts dissolved in aqueous 5% dextrose, by intraperitoneal injection once/day for 5 consecutive days, with vehicle control. Tumor mass, estimated from volume, was measured twice weekly; and tumor growth inhibition was measured when the average tumor mass in the control group first exceeded 2000 mg. All compounds were active in this assay, with tumor growth inhibition compared to vehicle of 70% and 23% for compounds 2A and 3A, respectively, at 50 mg/Kg, and 100%, 100%, 100%, and 91% for compounds 1A, 2A, 3A, and 5A, respectively, at 100 mg/Kg.

For another data set, the system named is MX-1 (breast carcinoma). The data set is described as follows: Cytotoxicity/Growth Inhibition Assay (CellTiter-Glo), MX-1. Type of data set: cell-based. Particulars: Homo sapiens, 72 h; hydrochloride salts; 3 days culture. The protocol:
as §1, §2

Data set [4] relates to LNCaP (prostate carcinoma). The data set can be described thus: Cytotoxicity/Growth Inhibition Assay (CellTiter-Glo), LNCaP. The data set is classed as cell-based. Conditions: Homo sapiens, 96 h, hydrochloride salts, 4 days culture. The protocol: as §1, §2
The subject of data set [5] is MIA PaCa-2 (pancreatic carcinoma). The data set is described as follows: Cytotoxicity/Growth Inhibition Assay (CellTiter-Glo), MIA PaCa-2. Particulars: Homo sapiens, MIA PaCa-2, 72 h; hydrochloride salts; 3 days culture. The data set is classed as cell-based. The protocol: as §1, §2
The next data set relates to MIA PaCa-2 tumor. The data set is described as follows: MiaPaCa-2 Xenograft Assay, Intraperitoneal Administration. The data set is classed as in vivo, athymic nu/nu mice. Conditions: 100 mg/Kg intraperitoneal once/day for 7 days; for tumor growth inhibition compared to vehicle: hydrochloride salts in aqueous 5% dextrose. The protocol: Male athymic nu/nu mice, 6-8 weeks old (approximately 20 g), were implanted subcutaneously in the right fore flank with 20-30 mg pieces of MIA PaCa-2 tumor harvested from similar nu/nu mice that had previously been implanted with the MIA PaCa-2 tumor. […] A group of mice was treated with compounds 2A, 3A, and 5A, in all cases as the hydrochloride salts dissolved in aqueous 5% dextrose, at 100 mg/Kg by intraperitoneal injection once/day for 7 consecutive days, with vehicle control.

Data set [6] relates to human cancer cell lines DLD-1, LNCaP, MIA PaCa-2, MX-1. The data set is described as follows: Cytotoxicity/Growth Inhibition Assay, all cell lines, comparison with canfosfamide. Type of data set: cell-based. Conditions: all assays (DLD-1, LNCaP, MIA PaCa-2, MX-1). As for the experimental part:
as §1
Log-phase cells were trypsinized, collected by centrifugation, and resuspended in a small volume of fresh medium, and the density of viable cells was determined following Trypan Blue staining. Cells were diluted in fresh media (3×10^3 cells/mL for DLD-1, MIA PaCa-2, and MX-1, and 6×10^3 cells/mL for LNCaP), and added at 150 μL/well to 96-well plates, and incubated for several hours to allow attachment in the case of adherent cells. […] After incubation for 10 minutes at room temperature, and the plate was read with a luminometer. […]

Data set [7] has as its system MX-1 tumor. The data set is described as follows: MX-1 Xenograft Assay, Intravenous Administration. Particulars: hydrochloride salt in aqueous 5% dextrose. Type of data set: in vivo, athymic nu/nu mice. As for the experimental part: as §3
A study similar to that described in In vivo Example 1 was performed using intravenous administration of compound 2A. A group of mice was treated with the compound, as the hydrochloride salt dissolved in aqueous 5% dextrose, at 40 and 80 mg/Kg by tail vein injection once/day for 5 consecutive days, with vehicle control.

Data set [8] concerns MX-1 tumor. The data set is described as follows: MX-1 Xenograft Assay, Oral Administration. Type of data set: in vivo, athymic nu/nu mice. Particulars: hydrochloride salt in water. The protocol: as §3
A study similar to that described in In vivo Example 1 was performed using oral administration of compounds 2A and 3A. Groups of mice were treated with compound 2A at 100, 150, 200, or 300 mg/Kg, or compound 3A at 150 mg/Kg, in each case as the hydrochloride salts dissolved in water, by gavage once/day for 5 consecutive days, with vehicle control. Both compounds were active in this assay and compound 2A caused dose-dependent tumor inhibition.

[9] abbreviates: 100 mg/Kg intraperitoneal once/day for 5 days.
The mark [10] stands for this setting: 50 mg/Kg intraperitoneal once/day for 5 days.

For orientation: IC50 means the concentration that gives 50% inhibition. Consider `CN(C)CCS(=O)(=O)CCOP(=O)(N(CCCl)CCCl)N(CCCl)CCCl` [Compound 1A, 2-{[2-(dimethylamino)ethyl]sulfonyl}ethyl N,N,N′,N′-tetrakis(2-chloroethyl)phosphorodiamidate], for which the “solubility in water (in words)” value in [1] (citrate salt) is reported as “somewhat more soluble than the citrate salt of compound 2A”; in [1] (hydrochloride salt), “highly soluble in water”. Moreover, the half-maximal inhibitory concentration (IC50) in data set [2] was found to be 11 µM; with MX-1 (breast carcinoma), 43 µM; in data set [4], 130 µM; in [5] it was 39 µM. The “tumor growth inhibition compared to vehicle” value in the data set on MX-1 tumor [3] (setting [9]) was determined as 100%.

Usually solubility stands for how much of the substance goes into solution per volume. In the case of `CCN(CC)CCS(=O)(=O)CCOP(=O)(N(CCCl)CCCl)N(CCCl)CCCl` [Compound 2A, 2-{[2-(diethylamino)ethyl]sulfonyl}ethyl N,N,N′,N′-tetrakis(2-chloroethyl)phosphorodiamidate], the “solubility in water (in words)” value in [1] (tartrate salt) is on record as “slightly more soluble than the citrate salt”. In addition, the solubility is roughly 19 mg/mL in data set [1] (citrate salt) and no less than 50 mg/mL in data set [1] (hydrochloride salt). Also, the IC50 in data set [2] is 7.9 µM; in the data set with MX-1 (breast carcinoma), 16 µM; in data set [4], 75 µM; in data set [5], 16 µM. The body weight effect entry with MIA PaCa-2 tumor was “some body weight loss”. Further, the “tumor growth inhibition compared to vehicle” value is listed as 89% with MIA PaCa-2 tumor, 70% in the data set on MX-1 tumor [3] (setting [10]) and 100% in the data set on MX-1 tumor [3] (setting [9]). Besides, the “potency relative to canfosfamide” value in data set [6] was “more potent”. Further, the “inhibition of tumor growth compared to vehicle” value was determined as 53% in the data set with MX-1 tumor [7] (40 mg/Kg tail vein injection once/day for 5 days), 99% with MX-1 tumor [7] (80 mg/Kg tail vein injection once/day for 5 days), 92% with MX-1 tumor [8] (100 mg/Kg by gavage once/day for 5 days) and 100% with MX-1 tumor [8] (300 mg/Kg by gavage once/day for 5 days).

Consider `CC(C)N(CCS(=O)(=O)CCOP(=O)(N(CCCl)CCCl)N(CCCl)CCCl)C(C)C` [Compound 3A, 2-{[2-(diisopropylamino)ethyl]sulfonyl}ethyl N,N,N′,N′-tetrakis(2-chloroethyl)phosphorodiamidate], for which the half-inhibitory concentration (IC50) in data set [2] came to 5 µM; in the data set on MX-1 (breast carcinoma), 5 µM; in data set [4], 16 µM; in [5], 6.8 µM. For the same compound, in the data set with MIA PaCa-2 tumor, the body weight effect entry was “some body weight loss”. The “tumor growth inhibition compared to vehicle” value is given as 89% in the data set on MIA PaCa-2 tumor, 23% in the data set with MX-1 tumor [3] (setting [10]) and 100% in the data set on MX-1 tumor [3] (setting [9]). For the same compound, the “potency relative to canfosfamide” value in [6] is “more potent”. Moreover, the “inhibition of tumor growth compared to vehicle” value in the data set on MX-1 tumor [8] (150 mg/Kg by gavage once/day for 5 days) is 98%.

Take `O=P(OCCS(=O)(=O)CCN1CCCC1)(N(CCCl)CCCl)N(CCCl)CCCl` [Compound 4A, 2-{[2-(pyrrolidin-1-yl)ethyl]sulfonyl}ethyl N,N,N′,N′-tetrakis(2-chloroethyl)phosphorodiamidate]: the IC50 in [2] came to 8.6 µM; in the data set on MX-1 (breast carcinoma), 26 µM; in data set [4] it was 100 µM; in [5] it was 29 µM.

`O=P(OCCS(=O)(=O)CCN1CCCCC1)(N(CCCl)CCCl)N(CCCl)CCCl` [Compound 5A, 2-{[2-(piperidin-1-yl)ethyl]sulfonyl}ethyl N,N,N′,N′-tetrakis(2-chloroethyl)phosphorodiamidate]: the IC50 is 13 µM in data set [2], 41 µM in the data set on MX-1 (breast carcinoma), 140 µM in data set [4] and 36 µM in data set [5]. The body weight effect result with MIA PaCa-2 tumor was “some body weight loss”. For the same compound, the results for the “tumor growth inhibition compared to vehicle” value with MIA PaCa-2 tumor and in the data set with MX-1 tumor [3] (setting [9]) were 62% and 91%, respectively.
